Experimental findings from patent US6642379B1, “Benzamide derivatives, insecticides for agricultural and horticultural use and usage thereof” (Nihon Nohyaku Co., Ltd., priority 1999, dated 2003) are described below.

The assay has as its system Diamond Back Moth (Plutella xylostella). Put plainly: Insecticidal effect on diamond back moth (Test Example 1). The assay is classed as in vivo. As to conditions: 144 h, Chinese cabbage seedling with eggs immersed about 30 seconds, 25° C., hatched insects counted six days after immersion, read-out: insecticidal effect (mortality) activity ranking. An excerpt:
Insecticidal Effect on Diamond Back Moth (Plutella xylostella)
Adult diamond back moths were released and allowed to oviposit on a Chinese cabbage seedling. Two days after the release, the seedling having the eggs deposited thereon was immersed for about 30 seconds in a liquid chemical prepared by diluting a preparation containing each compound listed in Tables 1 to 4 as an active ingredient to adjust the concentration to 500 ppm. After air-dryness, it was allowed to stand in a room thermostatted at 25° C. Six days after the immersion, the hatched insects were counted. The mortality was calculated according to the following equation and the insecticidal effect was judged according to the criterion shown below. The test was carried out with triplicate groups of 10 insects. [formula]

Take `Cc1cc(OC(F)(F)F)ccc1NC(=O)c1cccc(Cl)c1-c1coc(C(C)(C)C)n1` [4-1, 2-(2-t-butyloxazol-4-yl)-3-chloro-2′-methyl-4′-trifluoromethoxybenzanilide]: the mortality at 500 ppm was 100%.

One may read the mortality as the percentage killed.
